Structures are written as SMILES.

In one assay the target is T1, Mineralocorticoid receptor (Homo sapiens, UniProt P08235).
T1 sequence (P08235 whole entry): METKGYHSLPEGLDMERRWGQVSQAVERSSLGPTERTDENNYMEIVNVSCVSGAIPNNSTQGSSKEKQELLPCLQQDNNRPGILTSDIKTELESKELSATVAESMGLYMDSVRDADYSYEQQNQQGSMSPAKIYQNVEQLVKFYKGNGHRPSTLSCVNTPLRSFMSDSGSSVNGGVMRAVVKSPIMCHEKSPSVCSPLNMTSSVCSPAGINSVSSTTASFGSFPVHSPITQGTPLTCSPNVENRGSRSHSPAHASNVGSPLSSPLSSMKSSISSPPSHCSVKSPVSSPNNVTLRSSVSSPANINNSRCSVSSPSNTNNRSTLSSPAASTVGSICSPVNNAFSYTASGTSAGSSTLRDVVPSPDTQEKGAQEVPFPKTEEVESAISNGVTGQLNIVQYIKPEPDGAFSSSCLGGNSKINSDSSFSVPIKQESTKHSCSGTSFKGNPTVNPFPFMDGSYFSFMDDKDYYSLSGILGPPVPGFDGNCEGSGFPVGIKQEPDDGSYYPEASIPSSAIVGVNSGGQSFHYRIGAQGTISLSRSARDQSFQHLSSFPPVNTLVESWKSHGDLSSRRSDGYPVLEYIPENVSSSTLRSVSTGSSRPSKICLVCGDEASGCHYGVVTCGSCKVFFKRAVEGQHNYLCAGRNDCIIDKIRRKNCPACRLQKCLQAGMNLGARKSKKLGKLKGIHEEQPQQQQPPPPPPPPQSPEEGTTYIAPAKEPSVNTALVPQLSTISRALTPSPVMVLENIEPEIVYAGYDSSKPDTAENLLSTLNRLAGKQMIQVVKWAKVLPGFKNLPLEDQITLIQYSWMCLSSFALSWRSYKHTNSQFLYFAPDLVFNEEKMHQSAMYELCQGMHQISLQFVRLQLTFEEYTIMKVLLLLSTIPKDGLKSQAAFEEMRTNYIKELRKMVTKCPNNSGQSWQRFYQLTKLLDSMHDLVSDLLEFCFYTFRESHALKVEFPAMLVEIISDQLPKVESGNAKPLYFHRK
Briefly: Displacement of [3H]-Aldosterone from MR overexpressed in human 293 cells measured after overnight incubation by TopCount method. Type of assay: cell-based.
Consider `CCC(CC)(c1ccc2c(c1)OCCO2)c1c[nH]c2c(NS(C)(=O)=O)cccc12`, for which the inhibition constant (Ki) is at most 500 nM. The compound `CCC(CC)(c1ccccc1)c1c[nH]c2c(NS(C)(=O)=O)cccc12` had a Ki of at most 500 nM.

Take `CCC(CC)(c1ccc(O)cc1)c1c[nH]c2c(NS(C)(=O)=O)cccc12`: the Ki is at most 500 nM.

In turn, `CCC(CC)(c1ccc(Cl)cc1)c1c[nH]c2c(NS(C)(=O)=O)cccc12` returned an inhibition constant Ki of at most 500 nM. Turning to `CCC(CC)(c1cc2ccccc2o1)c1c[nH]c2c(NS(C)(=O)=O)cccc12`, the inhibition constant Ki was at most 500 nM. Turning to `CCC(CC)(c1ccc2ncsc2c1)c1c[nH]c2c(NS(C)(=O)=O)cccc12`, the Ki was at most 500 nM.

Test system in the next assay: not listed separately
Nature of the assay: Displacement of [3H]-Aldosterone from recombinant rhesus monkey MR expressed in baculovirus infected insect cells after 3 hrs by filter-based Topcount method. Also noted: species or system Macaca mulatta.
As to `COC(=O)C1=C(C)NC(C)=C(C(=O)OC)C1c1cccc2ccccc12`, the Ki was 61 nM.

Turning to `COc1cc(C2C(C(=O)Oc3ccccc3)=C(C)NC(C)=C2C(=O)Oc2ccccc2)ccc1O`, the inhibition constant Ki was 21.5 nM.

On to `Cc1cccc(Cn2ccnc2C(c2ccccc2)c2ccccc2)c1`, for which the Ki was 134 nM. For `CCCSC1=C(C#N)C(c2ccccc2Cl)C(C(=O)Nc2ccccc2OC)=C(C)N1` (stereo not drawn), the inhibitory constant (Ki) worked out at 14.9 nM. On to `CCSC1=C(C#N)C(c2ccccc2Cl)C(C(=O)Nc2ccccc2OC)=C(C)N1` (stereo not drawn), for which the Ki is 53 nM.

As for `CC(c1ccccc1)n1ccnc1C(c1ccccc1)c1ccccc1` (stereo not drawn), the inhibition constant (Ki) is 285 nM.

A further assay addresses T1, Mineralocorticoid receptor. Nature of the assay: Antagonist activity at Gal4-fused human MR LBD (734 to 985 residues) expressed in CHO-K1 cells after 5 to 6 hrs by luciferase reporter gene assay. The format is cell-based.
With `CCc1cnc2cccc(C3C(C#N)=C(C)NC(C)=C3C(=O)OC(C)C)c2c1` (stereo not drawn), it took 310 nM to reach half-maximal inhibition (IC50).

Compound `CC1=C(C#N)C(c2cccc3c(=O)cc(C)oc23)C(C(=O)OC(C)C)=C(C)N1` (stereo not drawn) gave an IC50 of 160 nM. Compound `CC(=O)C1=C(C)NC(C)=C(C(=O)OC2CCC2)[C@@H]1c1cccc2c(=O)cc(C)oc12` had an IC50 of 7 nM. In turn, `CCOc1nccc2c1C(c1ccc(C#N)cc1OC)C(C#N)=C(C)N2` (stereo not drawn) registered an IC50 of 100 nM. For `COC(=O)c1c(C)nc(C)c(C(=O)CC2CCC2)c1-c1cccc2c(=O)cc(C)oc12`, the midpoint of inhibition, the IC50, lay at 18 nM.

`CC1=C(C#N)C(c2cccc3c2-c2ccccc2C3=O)C(C(=O)OC(C)C)=C(C)N1` (stereo not drawn): 23 nM corresponded to half-maximal inhibition (IC50).

A further assay concerns the target T1, Mineralocorticoid receptor. Nature of the assay: Antagonist activity at Gal4-fused human MR LBD (671 to 984 residues) expressed in African Green Monkey CV-1 cells assessed as inhibition of aldosterone-induced transactivation activity after 20 hrs by luciferase reporter gene assay. The format is cell-based.
`Cc1ccc(NC(=O)c2cc(C)n(-c3ccccc3C(F)(F)F)c2C)cc1Cl`: the half-maximal inhibitory concentration (IC50) was under 500 nM. Turning to `Cc1c(C(=O)Nc2ccc(S(C)(=O)=O)cc2)cn([C@H](C)[C@H](C)O)c1-c1ccc(F)cc1C(F)(F)F`, the IC50 turned out to be 3.8 nM. In the case of `Cc1c(C(=O)Nc2ccc(S(C)(=O)=O)cc2)cc(CCF)n1-c1ccc(F)cc1OC(F)F` (single isomer, unassigned; atropisomer 2), the 50% inhibitory concentration (IC50) was over 1000 nM. For `Cc1cc(C(=O)Nc2cccc3ccccc23)c(C)n1-c1ccccc1C(F)(F)F`, the IC50 is under 500 nM. Turning to `Cc1c(C(=O)Nc2ccc(S(C)(=O)=O)cc2)cc([C@H](C)[C@H](C)O)n1-c1ccc(F)cc1C(F)(F)F` (mixture of isomers), the 50% inhibitory concentration (IC50) was found to be 6.2 nM.

Take `Cc1cc(C(=O)Nc2ccc(S(N)(=O)=O)cc2)c(C)n1-c1ccccc1C(F)(F)F`: the IC50 was under 500 nM. With `Cc1cc(C(=O)NCCc2ccccc2)c(C)n1-c1ccccc1C(F)(F)F`, the half-maximal inhibitory concentration (IC50) was under 500 nM. In the case of `Cc1c(C(=O)Nc2ccc(S(C)(=O)=O)cc2)cc(C[C@H](C)O)n1-c1ccc(Cl)cc1-c1ccc(F)cc1` (single isomer, unassigned; atropisomer 2), the concentration for half-maximal inhibition (IC50) is over 1000 nM. As for `Cc1c(C(=O)Nc2ccc(S(C)(=O)=O)cc2)cn([C@H](C)[C@H](C)O)c1-c1ccc(F)cc1C(F)(F)F` (single isomer, unassigned; atropisomer 2), the IC50 was over 1000 nM.

Take `Cc1c(C(=O)Nc2ccc(S(C)(=O)=O)cc2)cc(CCO)n1-c1ccc(Cl)cc1C(F)(F)F` (single isomer, unassigned; atropisomer 2): the IC50 is over 1000 nM. For `Cc1[nH]c(C(=O)Nc2ccc(S(C)(=O)=O)cc2)c(C)c1-c1ccccc1C(F)(F)F`, the half-inhibitory concentration (IC50) was under 500 nM.

As to `Cc1c(C(=O)Nc2ccc(S(C)(=O)=O)cc2)cc(C[C@H](C)O)n1-c1ccc(Cl)cc1C(F)(F)F` (single isomer, unassigned; atropisomer 2), the IC50 was over 1000 nM.

For the next assay, the target named is T1, Mineralocorticoid receptor. Nature of the assay: Displacement of [3H]-Aldosterone from MR overexpressed in human 293 cells measured after 2 hrs by Microbeta scintillation counting method. Type of assay: cell-based.
Compound `N#C/N=c1/[nH]c2cc(/C=C3/c4ccc(F)cc4OCc4c(F)cccc43)ccc2n1[C@@H]1C[C@@H]2COCCN2C1` had an inhibition constant Ki of at most 10 nM. Still for that read-out and setting: then `N#C/N=c1/[nH]c2cc(/C=C3/c4ccc(F)cc4OCc4c(F)cccc43)ccc2n1[C@H]1C[C@@H]2COCCN2C1`, with 0.23 nM. Regarding `CN1C[C@H](O)[C@@H](n2/c(=N/C#N)[nH]c3cc(/C=C4\c5ccccc5COc5cc(F)ccc54)ccc32)C1`, the inhibitory constant (Ki) was at most 10 nM.

Regarding `N#C/N=c1\[nH]c2cc(/C=C3/c4ccc(F)cc4OCc4c(F)cccc43)ccc2n1[C@@H]1C[C@H]2COCCN2C1`, the Ki is at most 10 nM. For the compound `CN1CCN(n2/c(=N\C#N)[nH]c3cc(/C=C4\c5ccccc5COc5cc(F)ccc54)ccc32)CC1`, the affinity corresponds to a Ki of 0.08 nM. On the same count and under the same terms, then `C[C@H](CN1CCOCC1)n1/c(=N\C#N)[nH]c2cc(/C=C3\c4ccc(F)cc4COc4cc(F)ccc43)ccc21`, with 0.79 nM; and `NC(=O)/N=c1/[nH]c2cc(/C=C3\c4ccccc4COc4cc(F)ccc43)ccc2n1[C@H]1C[C@@H]2COCCN2C1`, with at most 10 nM.

With `C[C@H](CN1CCOCC1)n1/c(=N\C#N)[nH]c2cc(/C=C3/c4ccc(F)cc4OCc4c(F)cccc43)ccc21`, the inhibition constant (Ki) is at most 10 nM. The compound `N#C/N=c1/[nH]c2cc(/C=C3/c4ccc(F)cc4OCc4c(F)cccc43)ccc2n1[C@H]1C[C@H]2COCCN2C1` showed an inhibitory constant (Ki) of at most 10 nM. Compound `C[C@H](CN1CCOCC1)n1/c(=N\C(N)=O)[nH]c2cc(/C=C3\c4ccccc4COc4cc(F)ccc43)ccc21` [LY2623091] gave a Ki of 0.33 nM. As for `C[C@@H](CN1CCOCC1)n1/c(=N/C#N)[nH]c2cc(/C=C3\c4ccc(F)cc4COc4cc(F)ccc43)ccc21`, the inhibition constant (Ki) is at most 10 nM. Turning to `C[C@@H](CN1CCOCC1)n1/c(=N/C#N)[nH]c2cc(/C=C3\c4ccccc4COc4cc(F)ccc43)ccc21`, the inhibition constant Ki was at most 10 nM.

With `C[C@@H](CN1CCOCC1)n1/c(=N/C#N)[nH]c2cc(/C=C3/c4ccc(F)cc4OCc4c(F)cccc43)ccc21`, the Ki was at most 10 nM.

In another assay the target is T2, Mineralocorticoid receptor (Homo sapiens) (UniProt P08235).
T2 sequence (whole entry): T1 sequence (P08235 whole entry)
Nature of the assay: Antagonist activity at full-length human MR expressed in CHO-K1 cells assessed as inhibition of aldosterone-induced response measured after overnight incubation by luminesence analysis. The format is cell-based.
With `CCC(O)C(CC(F)F)(c1ccc(C(F)(F)F)cc1)n1ncc2c(NS(C)(=O)=O)cccc21` (stereo not drawn), the Inhibitory potency came out at 15 nM. Consider `CCC(c1ccc(C(F)(F)F)cc1)(C(O)C(F)F)n1ncc2c(NS(=O)(=O)CC)cc(F)cc21` (stereo not drawn), for which the Inhibitory potency was 11 nM.

As for `CCC(O)C(CC)(c1ccc(C(F)(F)F)cc1)n1ncc2c(NS(C)(=O)=O)cc(F)cc21` (stereo not drawn), the Inhibitory potency amounted to 9 nM. As to `CCC(O)C(CC)(c1ccc(Br)cc1)n1ncc2c(NS(C)(=O)=O)cccc21` (stereo not drawn), the Inhibitory potency is 3 nM. The same measure, in the same setting: then `CCC(c1ccc(C(F)(F)F)cc1)(C(O)C(F)F)n1ncc2c(NS(=O)(=O)CC)cccc21` (stereo not drawn), with 4 nM.

Source of the values: ChEMBL document CHEMBL4007392, “Modulating Mineralocorticoid Receptor with Non-steroidal Antagonists. New Opportunities for the Development of Potent and Selective Ligands without Off-Target Side Effects” (J Med Chem, 2017).
